Laboratory results taken from patent US20060084064A1, “Endocan compositions and methods for the treatment of neoplasms” (priority 2003, published 2006).

Experiments:
[1] = tested on: endocan mRNA in HUVECs; test: Endocan mRNA expression in serum-starved HUVECs (Northern blot); type: cell-based, human; details: for Inhibition of endocan induction by tumor cell-conditioned medium / Inhibition of endocan induction by VEGF: HUVECs preincubated 30 minutes with 5 μM BIM; for Inhibition of endocan induction by tumor cell-conditioned medium: 20 μM LY294002 or 50 μM PD98059 before 6 hour treatment, FIG. 3H; for Inhibition of endocan induction by VEGF: 20 μM LY294002, 50 μM PD98059 or 20 μM SU1498 before 6 hour treatment with 20 ng/ml VEGF, FIGS. 3G; for Inhibition of endocan induction by VEGF / Effect of growth factor addition on endocan mRNA: 3I; for Effect of growth factor addition on endocan mRNA: growth factor added to serum-starved HUVECs, FIGS. 3D-3F
Description: Human non-small lung cancer cells (NCI-H1437, ATCC (American Type Culture Collection) CRL-5872) and rat glioma cells (C6, ATCC CCL-107) were grown in DMEM (Life Technologies Inc., Gaithersburg, Md.) containing 10% FBS (Life Technologies Inc.). Human renal cell carcinoma cells (786-0, ATCC CRL-1932) were maintained in RPMI 1640 (Life Technologies Inc.) containing 10% FBS. HUVECs, human epidermal keratinocytes and human renal tubule epithelial cells were obtained from Clonetics (San Diego, Calif.) and grown in EGM-2-MV, KGM and REGM, respectively (Clonetics). All cells were maintained at 37° C. under 5% CO2 in humidified air. Endothelial cells were grown to 90% confluence, serum-starved overnight in EBM-2 medium containing 0.5% FBS and incubated in the absence or presence of tumor cell-conditioned medium or growth factors at the doses and for the times indicated. Unless otherwise stated, endothelial cells were incubated with 20 ng/ml VEGF for 6 hours. In inhibition studies, serum-starved endothelial cells were preincubated with 5 μM BIM, 20 μM LY294002, 50 μM PD98059, or 20 μM SU1498 for 30 minutes before a 6 hour treatment with tumor conditional medium or VEGF. For neutralization studies, tumor conditional medium or growth factors were preincubated with antibodies for 1 hour at 37° C. and the mixture was then added to serum-starved HUVECs.
Cultured cells and tissues were harvested for total RNA extraction, using the Trizol reagent (Life Technologies). Five μg total RNA from cells or 10 μg RNA from tissues were loaded on a 0.7% formaldehyde-containing agarose gel. The RNA was transferred to nylon membrane, covalently cross-linked by UV radiation, prehybridized for 6 hours, and hybridized for 18 hours at 42° C. with 10^6 cpm/ml [^32P] dCTP-labeled human endocan, mouse endocan, mouse vWF, or mouse VEGF cDNA probe.

[2] = target: Flk-1 kinase; details: selective inhibitor of Flk-1 kinase, obtained from Calbiochem; cited from earlier work
[3] = tested on: Flt-1 in HUVECs; details: VEGF added to HUVECs; Wang et al. 2000; cited from earlier work

Row | Molecule | Inhibition of endocan induction by tumor cell-conditioned medium [1] | Inhibition of endocan induction by VEGF [1] | Effect of growth factor addition on endocan mRNA [1] | other results
1 | COc1cccc(-c2cc(=O)c3ccccc3o2)c1N [PD90985] | not |  |  | 
2 | CC(C)c1cc(/C=C(\C#N)C(=O)NCCCc2ccccc2)cc(C(C)C)c1O [SU1498] |  | blocked |  | IC50 [2]: 700 nM
3 | VEGF |  |  | time and dose dependent increase | Cell surface expression of Flt-1 [3]: reduced; Flt-1 mRNA [3]: increased
4 | CN(C)CCCn1cc(C2=C(c3c[nH]c4ccccc34)C(=O)NC2=O)c2ccccc21 [BIM, Bisindolylmaleimide I] | completely inhibited | completely inhibited |  | 
5 | placenta growth factor (PlGF): Recombinant human placenta growth factor purchased from R&D Systems (protein, UniProt P49763 19-221, looked up) Placenta growth factor: LPAVPPQQWALSAGNGSSEVEVVPFQEVWGRSYCRALERLVDVVSEYPSEVEHMFSPSCVSLLRCTGCCGDENLHCVPVETANVTMQLLKIRSGDRPSYVELTFSQHVRCECRHSPGRQSPDMPGDFRADAPSFLPPRRSLPMLFRMEWGCALTGSQSAVWPSSPVPEEIPRMHPGRNGKKQQRKPLREKMKPERCGDAVPRR |  |  | did not alter | 
